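96-well plates; 48 h exposure; 5 concentrations. Endpoints by linear interpolation between flanking doses. Not reached: highest tested concentration assigned. At the TGI there is no net growth.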
Assays:
Assay in all cases: growth of human tumour cells (NCI), 48 h
[1] = system: SF-539 CNS
[2] = system: ACHN renal
[3] = system: HCC-2998 colon
[4] = system: DMS 114 small cell lung
[5] = system: KM12 colon
[6] = system: SW-620 colon
[7] = system: A549 NSCLC
[8] = system: RXF 393 renal
[9] = system: NCI-H460 lung
[10] = system: OVCAR-8 ovarian
[11] = system: SNB-75 CNS
[12] = system: A498 renal
[13] = system: OVCAR-5 ovarian
[14] = system: HOP-18 NSCLC
[15] = system: NCI-H23 lung
[16] = system: SK-MEL-28 melanoma
[17] = system: COLO 205 colon
[18] = system: SNB-19 CNS
[19] = system: SK-OV-3 ovarian
[20] = system: K-562 leukemia
[21] = system: LOX IMVI melanoma
[22] = system: UACC-62 melanoma
[23] = system: M14 melanoma
[24] = system: NCI-H226 lung
[25] = system: IGROV1 ovarian
[26] = system: HCT-116 colon
[27] = system: DLD-1 colon
[28] = system: TK-10 renal
[29] = system: HL-60(TB) leukemia
[30] = system: SR leukemia
[31] = system: SF-295 CNS
[32] = system: MOLT-4 leukemia
[33] = system: CCRF-CEM leukemia
[34] = system: MALME-3M melanoma
[35] = system: LXFL 529 NSCLC
[36] = system: RPMI-8226 leukemia
[37] = system: UACC-257 melanoma
[38] = system: UO-31 renal
[39] = system: SK-MEL-2 melanoma
[40] = system: HT29 colon
[41] = system: HCT-15 colon
[42] = system: SN12C renal
[43] = system: U251 CNS
[44] = system: SK-MEL-5 melanoma
[45] = system: HOP-62 NSCLC
[46] = system: OVCAR-3 ovarian
[47] = system: DMS 273 small cell lung
[48] = system: KM20L2 colon
[49] = system: 786-0 renal
[50] = system: EKVX NSCLC
[51] = system: NCI-H522 lung

Measured: TGI

O=[N+]([O-])c1ccc(C[P+]2(c3ccccc3)CCCCC2)cc1
> 100 µM: all assays above

Source: PubChem BioAssay (NCI)
